{"source": "patent US20040120932A1", "about": "“In vitro-derived adult pluripotent stem cells and uses therefor” (priority 2000, published 2004)", "key": {"[1]": {"test_system": "neurofilament heavy chain (“NF”)", "assay": "Semi-quantitative RT-PCR of neurofilament heavy chain (NF) gene expression", "assay_type": "cell-based, human", "conditions": "NUCREM cells treated with 1-2 μM retinoic acid, day five (treatment regimen 3); ±45% SEM, three experiments", "protocol": "(§1) Subsequent to cyclin B treatment, the cultures of in vitro derived adult pluripotent stem cells were cultured in the presence of approximately 1-2 μM retinoic acid (“RA”) (Sigma, St. Louis) for five (5) to 10 days. […] By day five (5) of retinoic acid treatment, approximately 50% of the cells in culture attained a neuron-like morphology (FIG. 1). At day five of RA treatment (treatment regimen 3), RNA was extracted from the cultures for RT-PCR analysis. […]\n(§2) RT-PCR was performed using the QIAGEN® OneStep RT-PCR Kit (Qiagen Inc., Valencia, Calif.) according to the manufacturer's instructions. […] To control for the quality of the extracted RNA and to serve as an internal quantification marker, human glyceraldehyde 3-phosphate dehydrogenase (“GAPDH”) oligonucleotide primers were included in the RT-PCR reaction.\n(§3) The RT-PCR products were run out on a 2% agarose gel, which was then stained with ethidium bromide. The intensity of the resultant DNA bands were quantified using the PHORETIX™ TotalLab densitometry software package developed by Nonlinear USA (Durham, N.C.). […]"}, "[2]": {"test_system": "cardiac actin (“cACT”)", "assay": "Semi-quantitative RT-PCR of cardiac actin (cACT) gene expression", "assay_type": "cell-based, human", "conditions": "NUCREM cells treated with 1-2 μM retinoic acid, day five (treatment regimen 3); ±118% SEM, three experiments", "protocol": "as §1, §2, §3"}, "[3]": {"test_system": "α1-antitrypsin (“αAT”)", "assay": "Semi-quantitative RT-PCR of α1-antitrypsin (αAT) gene expression", "assay_type": "cell-based, human", "conditions": "NUCREM cells treated with 1-2 μM retinoic acid, day five (treatment regimen 3); ±94% SEM, three experiments", "protocol": "as §1, §2, §3"}, "[4]": {"test_system": "human telomerase (“TRT”)", "assay": "Semi-quantitative RT-PCR of telomerase (TRT) gene expression", "assay_type": "cell-based", "conditions": "NUCREM cells subsequently treated with 1-2 μM retinoic acid, day five (treatment regimen 3)", "protocol": "5-aza-2′-deoxycytidine (Sigma, St. Louis) was added at a concentration of 10-25 μM to cultures of human adult keratinocytes that were approximately 40% to 80% confluent. These cultures were further incubated for approximately four (4) days at 37° C. in an atmosphere of 5-10% CO2. After four days in the presence of 5-aza-2′-deoxycytidine, trichostatin A (Sigma, St. Louis) was added to the cultures at a concentration of 100-250 ng/ml. Cultures were further incubated for approximately one (1) day, as described above. RNA was extracted from some of the aliquots of cultures at this point (treatment regimen 1) for subsequent RT-PCR analysis. Other aliquots of cultures were subsequently treated as follows. […]\nas §2, §3"}, "[5]": {"test_system": "in vitro derived adult pluripotent stem cells (“NUCREM™ cells”)", "assay": "Retinoic acid induced differentiation of in vitro derived adult pluripotent stem cells (morphology)", "assay_type": "cell-based, human", "conditions": "approximately 1-2 μM retinoic acid, day five", "protocol": "Subsequent to cyclin B treatment, the cultures of in vitro derived adult pluripotent stem cells were cultured in the presence of approximately 1-2 μM retinoic acid (“RA”) (Sigma, St. Louis) for five (5) to 10 days. […] By day five (5) of retinoic acid treatment, approximately 50% of the cells in culture attained a neuron-like morphology (FIG. 1). At day five of RA treatment (treatment regimen 3), RNA was extracted from the cultures for RT-PCR analysis."}}}
{"smiles": "CC1=C(/C=C/C(C)=C/C=C/C(C)=C/C(=O)O)C(C)(C)CCC1", "note": "[retinoic acid]", "values": [{"measurement": "increase in levels of expression of NF relative to untreated keratinocytes", "setting": "[1]", "value": 89, "unit": "%"}, {"measurement": "increase in levels of expression of cACT relative to untreated keratinocytes", "setting": "[2]", "value": 667, "unit": "%"}, {"measurement": "increase in levels of expression of αAT relative to untreated keratinocytes", "setting": "[3]", "value": 343, "unit": "%"}, {"measurement": "decrease in levels of expression of TRT", "setting": "[4]", "value": "approximately 50%"}, {"measurement": "cells in culture that attained a neuron-like morphology", "setting": "[5]", "value": "approximately 50%"}]}
